Source: PubChem BioAssay (NCI)
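Grown in 96-well plates, cells were treated for 48 hours with each compound at five concentrations. Insufficient inhibition: endpoint recorded as highest concentration tested. GI50 = concentration required for 50% inhibition of growth. At the TGI there is no net growth.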

Key:
Assay in all cases: inhibition of tumour cell growth, NCI panel, 48 h
[1] = test system: MDA-MB-231 breast
[2] = test system: HCT-116 colon
[3] = test system: HL-60(TB) leukemia
[4] = test system: HCC-2998 colon
[5] = test system: NCI-H522 lung
[6] = test system: SK-MEL-28 melanoma
[7] = test system: MDA-MB-435
[8] = test system: CAKI-1 renal
[9] = test system: MALME-3M melanoma
[10] = test system: SR leukemia

Row | SMILES | GI50 [1] [µM] | TGI [1] [µM] | GI50 [2] [µM] | TGI [2] [µM] | GI50 [3] [µM] | TGI [3] [µM] | GI50 [4] [µM] | TGI [4] [µM] | GI50 [5] [µM] | TGI [5] [µM] | GI50 [6] [µM] | TGI [6] [µM] | TGI [7] [µM] | TGI [8] [µM] | TGI [9] [µM] | TGI [10] [µM] | GI50 [7] [µM] | GI50 [8] [µM] | GI50 [9] [µM] | GI50 [10] [µM]
1 | CCC(C)[C@H]1O[C@]2(C=C[C@@H]1C)C[C@@H]1C[C@@H](C/C=C(\C)[C@@H](OC3C[C@H](OC)C(O[C@H]4C[C@H](OC)[C@@H](O)[C@H](C)O4)[C@H](C)O3)[C@@H](C)/C=C/C=C3\CO[C@@H]4[C@H](O)C(C)=C[C@@H](C(=O)O1)[C@]34O)O2 (stereo not given in full) | 1.42 | 5.81 | 0.752 | 1.53 | 1.16 | 2.59 | 0.843 | 1.67 | 0.89 | 1.93 | 2.08 | 7.23 | – | – | – | – | – | – | – | –
2 | O=C(O)C1OC1(c1cccc(Cl)c1)c1ccccc1Cl (stereo not given) | – | 35.8 | – | 43.7 | – | 55.2 | – | > 100 | – | 65 | – | 61.3 | > 100 | 81.8 | 49.9 | – | – | – | – | –
3 | CCOC1=C2C(=O)OC(=O)C2C2CCCCC2=C1 (stereo not given) | – | – | – | > 100 | – | > 100 | – | > 100 | – | > 100 | – | > 100 | – | > 100 | > 100 | – | – | – | – | –
4 | Clc1ccc(N=Nc2nc3ccccc3nc2N=Nc2ccc(Cl)cc2Cl)c(Cl)c1 | – | – | – | > 100 | – | 90 | – | > 100 | – | > 100 | – | > 100 | – | – | > 100 | > 100 | – | – | – | –
5 | Cc1cc2c(C)nn(Cc3ccccc3)c2c(C(N)=O)c1C | – | – | – | > 100 | – | – | – | > 100 | – | > 100 | – | > 100 | – | – | > 100 | – | – | – | – | –
6 | c1ccc(C(c2ccccc2)c2cccnc2)cc1 | – | – | – | > 100 | – | – | – | > 100 | – | – | – | > 100 | – | > 100 | > 100 | – | – | – | – | –
7 | Cc1ccc(SSc2ccc(C)cc2C(=O)O)c(C(=O)O)c1 | – | – | – | – | – | > 100 | – | – | – | > 100 | – | > 100 | – | > 100 | > 100 | > 100 | – | – | – | –
8 | CCn1cc(C(=O)N/N=C/c2ccccc2)c(=O)c2cc(F)c(N3CCNC(C)C3)c(F)c21 (stereo not given) | – | – | – | – | – | – | 1.8 | 3.32 | – | – | 1.78 | 3.19 | 3.36 | 3.14 | – | – | 1.91 | 1.75 | – | –
9 | COC(=O)/C(=N\NC(=O)C[N+](C)(C)C)C(C(=O)OC)C(=O)C(=O)Nc1ccccc1C(N)=O (stereo not given) | – | – | – | > 100 | – | > 100 | – | > 100 | – | > 100 | – | > 100 | – | > 100 | > 100 | > 100 | – | – | – | –
10 | COc1ccc(-c2nc(/C=N/Nc3cc(C)nc4ccc(Cl)cc34)c(C)o2)cc1 | 2.03 | 3.84 | 1.82 | 3.27 | – | – | 1.85 | 3.39 | – | – | 1.8 | 3.24 | 3.07 | 2.98 | 3.43 | – | 1.65 | 1.63 | 1.84 | –
11 | C1COCCN1.C1COCCN1.NC1CCCCC1N.[Cl-].[Pt+2] (stereo not given) | – | – | > 100 | > 100 | > 100 | > 100 | > 100 | > 100 | 46.5 | > 100 | > 100 | > 100 | – | > 100 | > 100 | – | – | > 100 | 50.6 | –
12 | CN1c2ccccc2N(C(=O)c2ccc(Cl)cc2)C(CC(=O)O)c2cccn21 (stereo not given) | – | – | – | – | – | > 100 | – | > 100 | – | > 100 | – | > 100 | – | > 100 | > 100 | – | – | – | – | –
13 | Cc1oc2c(C)c3oc(=O)cc(C)c3cc2c1CN1C(=O)C2OCCOCCOCCOCCOCCO[C@H]2C1=O (stereo not given in full) | – | – | – | > 100 | – | > 100 | – | > 100 | – | > 100 | – | – | – | > 100 | > 100 | > 100 | – | – | – | –
14 | CC(=O)C(=Cc1ccc(C=C(C(C)=O)C(C)=O)cc1)C(C)=O | – | 4.4 | – | 1.81 | – | 4.52 | – | 7.66 | – | 1.93 | – | 4.48 | 5.66 | 4.75 | 4.84 | – | – | – | – | –
15 | CN(C)CCNC(=O)c1cc([N+](=O)[O-])cc2c1Oc1ccccc1O2 | – | – | – | > 100 | – | > 100 | – | 24.1 | – | > 100 | – | > 100 | > 100 | > 100 | 97.9 | > 100 | – | – | – | –
16 | O=[N+]([O-])c1ccc2c(c1)Cc1cc(N=Cc3ccc4c(c3)OCO4)ccc1-2 | – | > 100 | – | > 100 | – | > 100 | – | – | – | > 100 | – | > 100 | > 100 | > 100 | > 100 | – | – | – | – | –
17 | CCN(CC)CCOc1ccc(CCc2cc(OC)c(OC)c(OC)c2)cc1 | – | – | – | > 100 | – | 44.4 | – | – | – | > 100 | – | > 100 | – | > 100 | > 100 | > 100 | – | – | – | –
18 | N.N.N.N.N.[Cl-].[Co+3].c1ccc(-c2nn[n-]n2)cc1 | – | – | > 100 | > 100 | > 100 | > 100 | > 100 | > 100 | – | – | > 100 | > 100 | – | > 100 | > 100 | > 100 | – | > 100 | > 100 | > 100
19 | OCC(O)C(Cl)CCl (stereo not given) | – | > 100 | – | > 100 | – | > 100 | – | > 100 | – | > 100 | – | > 100 | – | > 100 | > 100 | > 100 | – | – | – | –
20 | CC(=O)NNc1nc(C)c(C(=O)/C=C/c2ccccc2Cl)s1 | – | – | – | – | – | > 100 | – | > 100 | – | > 100 | – | > 100 | – | > 100 | > 100 | – | – | – | – | –
21 | COC(=O)C(C#CCCCCC#CC(NC(=O)OCc1ccccc1)(C(=O)OC)C(F)(F)F)(NC(=O)OCc1ccccc1)C(F)(F)F (stereo not given) | – | – | – | > 100 | – | > 100 | – | > 100 | – | > 100 | – | > 100 | – | > 100 | > 100 | – | – | – | – | –
22 | Cc1cc(Cl)ccc1Nc1nc(C(F)(F)F)ccc1C(=O)N/N=C/c1ccc(Cl)cc1 | 1.09 | 4.22 | 2.46 | 9.87 | 2.1 | 4.63 | 1.45 | 4.7 | 2.23 | 7.96 | 2.18 | 12.7 | 3.89 | 3.85 | 5.51 | – | 1.42 | 1.25 | 2.02 | –
